{
  "source": "patent US20240251801A1",
  "about": "“COMPOSITIONS AND METHODS FOR IMPROVING PLANT HEALTH AND CONTROLLING PLANT DISEASE” (AgBiome, Inc., priority 2021, published 2024)",
  "key": {"Phakopsora pachyrhizi [1]": {"test_system": "Phakopsora pachyrhizi", "experiment": "Soybean leaf disk assay, control of Asian soybean rust", "type": "in vivo", "details": "soybean leaf disks, strain 1×10^8 CFU/mL, azoxystrobin 0.5 ppm", "procedure": "For detached-leaf assays performed in the following examples, bacterial strains stored in a freezer (−80° C.) were each streaked onto Luria Bertani (LB) agar (25 g LB broth and 15 g agar per liter of deionized water) in an 8.5-cm diameter plastic plate. A single colony from the plate was picked and placed in 50 ml of either LB liquid broth or a liquid broth consisting of NaCl (5 g), tryptone (10 g), nutrient broth (8 g), CaCl2 (0.14 mM), MgCl2·6H2O (0.2 mM), and MnCl2·4H2O (0.01 mM) per liter of deionized water in a 250-ml flask. Calcium chloride (CaCl2), MgCl2, and MnCl2 were filtered sterilized using 0.22 μm vacuum filter and were then added to NaCl, tryptone, nutrient broth (which were autoclaved together). Cultures were harvested after 48 h by pelleting cells and re-suspending to original volume in sterile H2O. Colony forming units (CFU/mL) were determined using standard dilution plate count method, and plates were inspected for signs of contamination. Sterile distilled water was added to achieve a final concentration needed in detached-leaf or growth chamber strain evaluations.\nThe susceptible soybean cultivar Williams 82 was used in strain evaluation using the detached-leaf technique (Twizeyimana and Hartman, 2010). […]\nData recorded were numbers of uredinia in 1-cm diameter circle recorded 14 days after inoculation. […]"}, "Phakopsora pachyrhizi [2]": {"test_system": "Phakopsora pachyrhizi", "experiment": "Soybean leaf disc assay with wettable powder formulations, control of Asian soybean rust", "type": "in vivo", "details": "soybean leaf discs, 150 μL, azoxystrobin 0.25 ppm as control", "procedure": "For the tray drying method, 829 grams of cell paste obtained from a liquid culture of ATP15329 was mixed with 18.24 g of glycerol and 72.95 g of microcel E using a food processor. Half of the cell paste was dried at 40° C. to a water activity of less than 0.30, at which time it contained 3.53E11 CFU/g. The other half was dried at 25° C. and 50% RH to a water activity of less than 0.6, at which time it contained 4.75E11 CFU/g. The dried powder formulation was stored in heat sealed mylar pouches at 4° C.\nFor the spray drying method, 200 grams of cell paste obtained from a liquid culture of ATP15329 was mixed with 22 g of skim milk powder using an emulsion blender. This material was spray dried at outlet temperature of 70° C., at which time it contained 7.86E10 CFU/g. The dried powder formulation was stored in heat sealed mylar pouches at 4° C.\nThis evaluation followed the protocol used in Example 5. Briefly, leaf disks were each sprayed with 150 μL of different formulations of the bacterial strain AIP015329, azoxystrobin (0.25 ppm) (fungicide control) on the abaxial surface with 150 μl using a fingertip sprayer (Container & Packaging Supply, Eagle, ID) fitted to a 15 mL conical centrifuge tube. Leaf disks were placed adaxial side down on saturated 20×20 cm filter paper in a plastic container (Blister Box 20×20 cm, Placon, Madison, WI); two filter papers were used per box. Boxes with leaf disks were incubated at room temperature in the dark, 24 hours later, leaf disks in the box were inoculated as described earlier. Inoculated and non-inoculated/not treated controls were added. After inoculation, boxes were maintained and incubated as described in the first-round evaluations.\nData recorded were numbers of uredinia in 1-cm diameter circle recorded 14 days after inoculation. […] Data were analyzed using analysis of variance (ANOVA) in PROC GLM of SAS (version 9.4; SAS Institute Inc., Cary, NC) and significant differences (P<0.05) were observed among treatments (Table 9)."}},
  "data": [
    {"compound": "CO/C=C(/C(=O)OC)c1ccccc1Oc1cc(Oc2ccccc2C#N)ncn1", "note": "[Azoxystrobin, azoxystrobin]", "values": [
      {"measurement": "Disease Control (%) Confirmation", "setting": "Phakopsora pachyrhizi [1]; confirmation", "value": "95.7 (a) %"},
      {"measurement": "Disease Control (%) Primary Screen", "setting": "Phakopsora pachyrhizi [1]; uredinia counted 14 days after inoculation", "value": "99.8 (a) %"},
      {"measurement": "Disease Control (%) Spray dry", "setting": "Phakopsora pachyrhizi [2]; spray dried formulation of the strain, 14 days after inoculation", "value": "100 (a) %"},
      {"measurement": "Disease Control (%) Tray dry Dried at 25° C.", "setting": "Phakopsora pachyrhizi [2]; tray dried formulation dried at 25° C.", "value": "100 (a) %"},
      {"measurement": "Disease Control (%) Tray dry Dried at 40° C.", "setting": "Phakopsora pachyrhizi [2]; tray dried formulation dried at 40° C.", "value": "100 (a) %"}
    ]}
  ]
}
